# Measured values taken from patent publication US7109243B2 (IRM LLC, priority 2003, dated 2006).
# What was measured:
# Cathepsin K = target: T1, Cathepsin K (Homo sapiens, UniProt P43235); assay: Cathepsin K inhibition assay (fluorogenic peptide substrate); selectivity ratio vs cathepsin S; type: biochemical; conditions: ratio of cathepsin K inhibition constant to cathepsin S inhibition constant; Table II
# T1 sequence (P43235 115-329): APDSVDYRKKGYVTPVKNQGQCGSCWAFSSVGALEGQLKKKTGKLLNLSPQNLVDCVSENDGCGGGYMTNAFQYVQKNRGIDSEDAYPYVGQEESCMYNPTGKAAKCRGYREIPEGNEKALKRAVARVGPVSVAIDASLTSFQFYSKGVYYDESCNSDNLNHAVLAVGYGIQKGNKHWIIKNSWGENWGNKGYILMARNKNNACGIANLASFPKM
# In short: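 Fluorogenic kinetic assay, started with acetyl-Lys-His-Pro-Lys-aminocarbamoylcoumarin at 40 μM final, hydrolysis followed at ex 380/em 450 nm. Apparent inhibition constants from progress curves, converted to competitive inhibition constants. Selectivity expressed as isozyme inhibition constant divided by cathepsin S inhibition constant.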
# Cathepsin S = Cathepsin S (Homo sapiens, UniProt P25774); assay: Cathepsin S inhibition assay (fluorogenic peptide substrate); type: biochemical; conditions: Table II, compounds of Formula I; read-out: Ki Cat. S
# Cathepsin S, sequence (P25774 115-331, species assumed): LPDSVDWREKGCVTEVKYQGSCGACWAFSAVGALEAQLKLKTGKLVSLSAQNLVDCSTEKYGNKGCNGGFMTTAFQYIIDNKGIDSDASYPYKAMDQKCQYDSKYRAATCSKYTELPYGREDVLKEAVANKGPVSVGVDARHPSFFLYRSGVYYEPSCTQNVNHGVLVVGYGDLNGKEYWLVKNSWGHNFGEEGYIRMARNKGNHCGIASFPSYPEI
# In short: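 Ki values come from nonlinear fitting of inhibited hydrolysis rates, taking free and total inhibitor concentrations as equal. Rates measured as rising fluorescence at 380/450 nm after reaction start with 50 μM final acetyl-HPVK-aminocarbamoylcoumarin.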
Compound,Selectivity for Cat. S over Cat. K (Cathepsin K),Ki (Cathepsin S) [nM]
"CC(C(=O)N[C@@H](CC1CCCCC1)C(=O)NCCNc1ccc(F)cc1)c1ccc(F)cc1 (stereo partly drawn) [Compound 310, N-{2-cyclohexyl-1-(S)-[2-(4-fluoro-phenylamino)-ethylcarbamoyl]-ethyl}-2-(4-fluoro-phenyl)-propionamide]","++ (++, >100)",< 100
"CC(C(=O)N[C@@H](CC1CCCCC1)C(=O)NCCNc1ccc(F)cc1)c1ccc(O)cc1 (stereo partly drawn) [Compound 311, N-{2-cyclohexyl-1-(S)-[2-(4-fluoro-phenylamino)-ethylcarbamoyl]-ethyl}-2-(4-hydroxy-phenyl)-propionamide]","+ (+, >10)",< 100
"CC(C(=O)N[C@@H](CC1CCCCC1)C(=O)NCCNc1ccc(F)cc1)c1ccc(Cl)cc1 (stereo partly drawn) [Compound 312, 2-(4-Chloro-phenyl)-N-{2-cyclohexyl-1-(S)-[2-(4-fluoro-phenylamino)-ethylcarbamoyl]-ethyl}-propionamide]","++ (++, >100)",< 100
"CS(=O)(=O)c1ccc(C(=O)N[C@@H](CC2CCCCC2)C(=O)NCCNc2ccc(F)cc2)cc1 [Compound 313, N-(S)-{2-cyclohexyl-1-[2-(4-fluoro-phenylamino)-ethylcarbamoyl]-ethyl}-4-methanesulfonyl-benzamide]","+ (+, >10)",< 1000
"O=C(N[C@@H](CC1CCCCC1)C(=O)NCCNc1ccc(F)cc1)c1cscn1 [Compound 314, Thiazole-4-carboxylic acid (S)-{2-cyclohexyl-1-[2-(4-fluoro-phenylamino)-ethylcarbamoyl]-ethyl}-amide]","+ (+, >10)",< 100
"C[C@@H](C(=O)N[C@@H](CC1CCCCC1)C(=O)NCCNc1ccc(F)cc1)c1ccccc1 [Compound 315, N-{2-cyclohexyl-1-(S)-[2-(4-fluoro-phenylamino)-ethylcarbamoyl]-ethyl}-2-(R)-phenyl-propionamide]","++ (++, >100)",< 100
"N#Cc1ccc(C(=O)N[C@@H](CC2CCCCC2)C(=O)NCCNc2ccc(F)cc2)cc1 [Compound 316, 4-Cyano-N-(S)-{2-cyclohexyl-1-[2-(4-fluoro-phenylamino)-ethylcarbamoyl]-ethyl}-benzamide]","++ (++, >100)",< 100
"O=C(NCCNc1ccc(F)cc1)[C@H](CC1CCCCC1)NC(=O)[C@H](O)c1ccccc1 [Compound 317, 3-Cyclohexyl-N-[2-(4-fluoro-phenylamino)-ethyl]-2-(S)-(2-(R)-hydroxy-2-phenyl-acetylamino)-propionamide]","++ (++, >100)",< 100

# Second part, the molecule after the results:
Selectivity for Cat. S over Cat. K (Cathepsin K),Ki (Cathepsin S) [nM],Compound
"+++ (+++, >1000)",< 100,"O=C(Cc1ccccc1F)N[C@@H](CC1CCCCC1)C(=O)NCCNc1ccc(F)cc1 [Compound 306, 3-Cyclohexyl-2-(S)-[2-(2-fluoro-phenyl)-acetylamino]-N-[2-(4-fluoro-phenylamino)-ethyl]-propionamide]"
"+++ (+++, >1000)",< 100,"O=C(N[C@@H](CC1CCCCC1)C(=O)NCCNc1ccc(F)cc1)C(c1ccccc1)c1ccccc1 [Compound 307, 3-Cyclohexyl-2-(S)-diphenylacetylamino-N-[2-(4-fluoro-phenylamino)-ethyl]-propionamide]"
"++ (++, >100)",< 100,"CC(C(=O)NC(CC1CCCCC1)C(=O)NCCNc1ccc(F)cc1)c1ccc(-c2ccccc2)c(F)c1 [Compound 308, N-(S)-{2-cyclohexyl-1-[2-(4-fluoro-phenylamino)-ethylcarbamoyl]-ethyl}-2-(2-fluoro-biphenyl-4-yl)-propionamide]"
"++ (++, >100)",< 100,"Cc1ccc(C(C)C(=O)N[C@@H](CC2CCCCC2)C(=O)NCCNc2ccc(F)cc2)cc1 (stereo partly drawn) [Compound 309, N-{2-cyclohexyl-1-(S)-[2-(4-fluoro-phenylamino)-ethylcarbamoyl]-ethyl}-2-p-tolyl-propionamide]"
